From BindingDB's records for patent US9388210 (Washington University, 2016)

Target: Gamma-aminobutyric acid receptor subunit alpha-1/beta-2/gamma-2 (Rattus norvegicus, UniProt P18508+P62813+P63138)
Experiment: [35S]TBPS Binding Assay
Settings: pH 7.4; 25 °C
Method: Briefly, aliquots of membrane solution (0.5 mg/mL final protein concentration in assay) were incubated with 5 μM GABA, 2 nM [35S]TBPS (45−120 Ci/mmol), and 5 μL aliquots of steroid in DMSO solution (final assay concentrations ranged from 1 nM to 10 μM), and brought to a final volume of 1 mL with 200 mM NaCl, 50 mM potassium phosphate buffer, pH 7.4. […] Assay tubes were incubated for 2 h at room temperature.

Gamma-aminobutyric acid receptor subunit alpha-1/beta-2/gamma-2, sequence (P62813 whole entry): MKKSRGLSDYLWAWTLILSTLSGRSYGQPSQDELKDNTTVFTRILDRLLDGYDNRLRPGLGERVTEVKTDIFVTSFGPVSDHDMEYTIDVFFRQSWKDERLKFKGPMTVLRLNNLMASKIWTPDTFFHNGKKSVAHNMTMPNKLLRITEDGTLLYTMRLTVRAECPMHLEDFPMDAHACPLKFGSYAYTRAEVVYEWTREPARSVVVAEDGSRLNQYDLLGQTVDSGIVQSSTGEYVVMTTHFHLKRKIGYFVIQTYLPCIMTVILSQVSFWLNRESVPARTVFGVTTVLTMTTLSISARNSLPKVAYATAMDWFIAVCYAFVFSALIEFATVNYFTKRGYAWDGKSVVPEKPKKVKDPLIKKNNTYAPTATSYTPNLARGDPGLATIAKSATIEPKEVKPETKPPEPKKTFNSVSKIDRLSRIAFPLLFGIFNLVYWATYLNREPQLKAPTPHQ
Gamma-aminobutyric acid receptor subunit alpha-1/beta-2/gamma-2, sequence (P63138 whole entry): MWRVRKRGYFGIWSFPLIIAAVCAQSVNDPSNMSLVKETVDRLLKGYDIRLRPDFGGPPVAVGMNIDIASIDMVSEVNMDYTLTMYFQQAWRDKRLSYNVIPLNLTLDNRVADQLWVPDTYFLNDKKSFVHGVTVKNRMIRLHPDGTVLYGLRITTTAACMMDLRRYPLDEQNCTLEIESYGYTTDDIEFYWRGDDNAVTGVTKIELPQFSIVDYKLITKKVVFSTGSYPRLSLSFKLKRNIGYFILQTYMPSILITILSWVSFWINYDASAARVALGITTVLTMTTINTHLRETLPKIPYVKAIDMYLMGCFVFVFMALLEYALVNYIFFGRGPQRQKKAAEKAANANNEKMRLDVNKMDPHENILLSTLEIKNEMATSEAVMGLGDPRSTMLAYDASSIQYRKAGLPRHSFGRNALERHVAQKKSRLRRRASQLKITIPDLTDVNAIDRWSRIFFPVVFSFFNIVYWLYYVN
Gamma-aminobutyric acid receptor subunit alpha-1/beta-2/gamma-2, sequence (P18508 whole entry): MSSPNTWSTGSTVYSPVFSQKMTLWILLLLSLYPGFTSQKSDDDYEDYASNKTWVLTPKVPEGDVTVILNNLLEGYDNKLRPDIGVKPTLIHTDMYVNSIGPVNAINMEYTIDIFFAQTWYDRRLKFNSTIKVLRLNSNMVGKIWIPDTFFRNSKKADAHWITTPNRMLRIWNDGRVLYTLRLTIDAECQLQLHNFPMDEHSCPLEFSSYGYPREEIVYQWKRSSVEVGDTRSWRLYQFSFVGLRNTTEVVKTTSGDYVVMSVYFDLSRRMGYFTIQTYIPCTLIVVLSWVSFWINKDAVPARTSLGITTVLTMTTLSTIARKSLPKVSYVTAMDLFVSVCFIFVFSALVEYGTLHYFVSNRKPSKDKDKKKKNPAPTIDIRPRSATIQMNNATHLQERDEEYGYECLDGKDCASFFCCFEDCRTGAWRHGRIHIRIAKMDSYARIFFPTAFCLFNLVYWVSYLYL

SMILES | IC50
C[C@]12CC[C@@H](O)C[C@@H]1CC[C@@H]1[C@@H]2C(=O)C[C@]2(C)C(C=O)=CC[C@@H]12 [US9388210, 5a] | 997 nM
C[C@]12CC[C@@H](O)C[C@@H]1CC[C@H]1[C@@H]3CC[C@H](C=O)[C@@]3(C)CC(=O)[C@@H]12 [US9388210, 5b] | 770 nM
